Values quoted from earlier work in patent publication US20100104634A1, “PHARMACEUTICAL COMPOSITIONS OF ENTACAPONE” (priority 2006, published 2010).

Settings: low solubility, low dissolution rate, low bioavailability

## CCN(CC)C(=O)/C(C#N)=C/c1cc(O)c(O)c([N+](=O)[O-])c1 [Entacapone, (E)-2-cyano-3-(3,4-dihydroxy-5-nitrophenyl)-N,N-diethyl-2-propenamide]
  Biopharmaceutics Classification system (BCS) class: class IV
